In ChEMBL document CHEMBL4610081, “Anti-inflammatory Metabolites from Chaetomium nigricolor” (J Nat Prod, 2020):

Legend:
RAW264.7 [1] = assay: Inhibition of LPS-induced p38 MAPK protein expression in mouse RAW264.7 cell at 2.5 uM preincubated for 3 hrs followed by LPS-stimulation and measured after 1 hr by Western blot analysis (reference value: 1.1); assay type: functional
RAW264.7 [2] = assay: Inhibition of LPS-induced JNK protein expression in mouse RAW264.7 cell at 2.5 uM preincubated for 3 hrs followed by LPS-stimulation and measured after 1 hr by Western blot analysis (reference value: 1.21); assay type: functional
RAW264.7 [3] = assay: Inhibition of LPS-induced ERK phosphorylation in mouse RAW264.7 cell at 10 uM preincubated for 3 hrs followed by LPS-stimulation and measured after 1 hr by Western blot analysis (reference value: 6.92); assay type: cell-based
RAW264.7 [4] = assay: Antiinflammatory activity against mouse RAW264.7 cells assessed as LPS-induced COX-2 mRNA expression at 2.5 uM preincubated for 3 hrs followed by LPS-stimulation and measured after 24 hrs by RT-PCR analysis (reference value: 14.39); assay type: functional
RAW264.7 [5] = assay: Inhibition of LPS-induced JNK phosphorylation in mouse RAW264.7 cell at 10 uM preincubated for 3 hrs followed by LPS-stimulation and measured after 1 hr by Western blot analysis (reference value: 8.88); assay type: cell-based
[6] = target: T1, MAP kinase p38 (Mus musculus) (UniProt P47811+O08911+Q9WUI1+Q9Z1B7); assay: Inhibition of LPS-induced p38 MAPK phosphorylation in mouse RAW264.7 cell at 10 uM preincubated for 3 hrs followed by LPS-stimulation and measured after 1 hr by Western blot analysis (reference value: 5.59); assay type: cell-based
RAW264.7 [7] = assay: Trans-suppression of NFkappaB in mouse RAW264.7 cells assessed as LPS-induced nuclear-p65 level at 5 uM preincubated for 3 hrs followed by LPS-stimulation and measured after 1 hr by Western blot analysis (reference value: 3.3); assay type: cell-based
RAW264.7 [8] = assay: Antiinflammatory activity against mouse RAW264.7 cells assessed as reduction in LPS-induced TNF-alpha mRNA expression preincubated for 3 hrs followed by LPS-stimulation and measured after 12 hrs by RT-PCR analysis; assay type: functional, cell-based
RAW264.7 [9] = assay: Trans-suppression of NFkappaB in mouse RAW264.7 cells assessed as LPS-induced cytosol-p65 level at 5 uM preincubated for 3 hrs followed by LPS-stimulation and measured after 1 hr by Western blot analysis (reference value: 0.09); assay type: cell-based
RAW264.7 [10] = assay: Antiinflammatory activity against mouse RAW264.7 cells assessed as inhibition of LPS-induced NO production preincubated for 3 hrs followed by LPS-stimulation and measured after 24 hrs by Griess reagent based assay; assay type: functional, cell-based
RAW264.7 [11] = assay: Trans-suppression of NFkappaB in mouse RAW264.7 cells assessed as LPS-induced cytosol-p50 level at 2.5 uM preincubated for 3 hrs followed by LPS-stimulation and measured after 1 hr by Western blot analysis (reference value: 0.28); assay type: cell-based
RAW264.7 [12] = assay: Trans-suppression of NFkappaB in mouse RAW264.7 cells assessed as LPS-induced nuclear-p50 level at 2.5 uM preincubated for 3 hrs followed by LPS-stimulation and measured after 1 hr by Western blot analysis (reference value: 3.2); assay type: cell-based
RAW264.7 [13] = assay: Inhibition of LPS-induced JNK protein expression in mouse RAW264.7 cell at 10 uM preincubated for 3 hrs followed by LPS-stimulation and measured after 1 hr by Western blot analysis (reference value: 1.21); assay type: functional
RAW264.7 [14] = assay: Trans-suppression of NFkappaB in mouse RAW264.7 cells assessed as LPS-induced IKB-apha degradation at 2.5 uM preincubated for 3 hrs followed by LPS-stimulation and measured after 1 hr by Western blot analysis (reference value: 0.29); assay type: cell-based
RAW264.7 [15] = assay: Cytotoxicity against mouse RAW264.7 cells assessed as reduction cell viability at 20 uM by MTT assay; assay type: cell-based; settings: raw264.7, 20 µM
RAW264.7 [16] = assay: Trans-suppression of NFkappaB in mouse RAW264.7 cells assessed as LPS-induced IKB-apha phosphorylation at 5 uM preincubated for 3 hrs followed by LPS-stimulation and measured after 1 hr by Western blot analysis (reference value: 6.04); assay type: cell-based
RAW264.7 [17] = assay: Antiinflammatory activity against mouse RAW264.7 cells assessed as LPS-induced INOS mRNA expression at 5 uM preincubated for 3 hrs followed by LPS-stimulation and measured after 24 hrs by RT-PCR analysis (reference value: 8.2); assay type: functional
RAW264.7 [18] = assay: Inhibition of LPS-induced JNK phosphorylation in mouse RAW264.7 cell at 5 uM preincubated for 3 hrs followed by LPS-stimulation and measured after 1 hr by Western blot analysis (reference value: 8.88); assay type: cell-based
[19] = target: T1, MAP kinase p38 (Mus musculus); assay: Inhibition of LPS-induced p38 MAPK phosphorylation in mouse RAW264.7 cell at 5 uM preincubated for 3 hrs followed by LPS-stimulation and measured after 1 hr by Western blot analysis (reference value: 5.59); assay type: cell-based
RAW264.7 [20] = assay: Inhibition of LPS-induced JNK phosphorylation in mouse RAW264.7 cell preincubated for 3 hrs followed by LPS-stimulation and measured after 1 hr by Western blot analysis; assay type: cell-based
RAW264.7 [21] = assay: Trans-suppression of NFkappaB in mouse RAW264.7 cells assessed as LPS-induced nuclear-p65 level at 10 uM preincubated for 3 hrs followed by LPS-stimulation and measured after 1 hr by Western blot analysis (reference value: 3.3); assay type: cell-based
RAW264.7 [22] = assay: Inhibition of LPS-induced JNK protein expression in mouse RAW264.7 cell at 5 uM preincubated for 3 hrs followed by LPS-stimulation and measured after 1 hr by Western blot analysis (reference value: 1.21); assay type: functional
RAW264.7 [23] = assay: Inhibition of LPS-induced ERK protein expression in mouse RAW264.7 cell at 5 uM preincubated for 3 hrs followed by LPS-stimulation and measured after 1 hr by Western blot analysis (reference value: 1.13); assay type: functional
RAW264.7 [24] = assay: Inhibition of LPS-induced p38 MAPK protein expression in mouse RAW264.7 cell at 5 uM preincubated for 3 hrs followed by LPS-stimulation and measured after 1 hr by Western blot analysis (reference value: 1.1); assay type: functional
RAW264.7 [25] = assay: Inhibition of LPS-induced JNK phosphorylation in mouse RAW264.7 cell at 2.5 uM preincubated for 3 hrs followed by LPS-stimulation and measured after 1 hr by Western blot analysis (reference value: 8.88); assay type: cell-based

For COc1cc(OC)c2c(O)c3c(=O)cc(C)oc3c(-c3c(O)cc4cc(O)c5c(=O)cc(C)oc5c4c3OC)c2c1 (atropisomer aS) [ASPERPYRONE A], the “fold change (FC)” value (RAW264.7 [1]) was 1.12, the “fold change (FC)” value (RAW264.7 [2]) was 1.12 and the fold change (FC) (RAW264.7 [3]) was 7.03. The “fold change (FC)” value (RAW264.7 [4]) was 12.92, the fold change (FC) (RAW264.7 [5]) was 3.08 and the fold change (FC) [6] was 5.66. The fold change (FC) (RAW264.7 [7]) was 2.57, the Activity (RAW264.7 [8]) was “Dose-dependent effect” and the fold change (FC) (RAW264.7 [9]) was 0.78. The Activity (RAW264.7 [10]) was “Dose-dependent effect”, the IC50 (RAW264.7 [10]) was 8.6 µM and the fold change (FC) (RAW264.7 [11]) was 0.55. For the same compound, the fold change (FC) (RAW264.7 [12]) was 1.99, the “fold change (FC)” value (RAW264.7 [13]) was 1.19 and the fold change (FC) (RAW264.7 [14]) was 0.31. The Activity (RAW264.7 [15]) was “Non-Toxic”, the fold change (FC) (RAW264.7 [16]) was 3.21 and the “fold change (FC)” value (RAW264.7 [17]) was 2.62. The fold change (FC) (RAW264.7 [18]) was 4.02, the fold change (FC) [19] was 5.63 and the inhibition (RAW264.7 [20]) was “Dose-dependent effect”. The fold change (FC) (RAW264.7 [21]) was 1.54, the “fold change (FC)” value (RAW264.7 [22]) was 1.16 and the “fold change (FC)” value (RAW264.7 [23]) was 1.09. For the same compound, the “fold change (FC)” value (RAW264.7 [24]) was 0.98 and the fold change (FC) (RAW264.7 [25]) was 8.73.
